# Test system: patients with schizophrenia
# Test: Continuous Paired Associates Learning (CPAL) test of the CogState schizophrenia battery, by CYP1A2 rs2069514 genotype
# Assay type: in vivo, human
# Excerpt: To measure the effect of alpha 7 nicotinic acetylcholine receptor activator treatment on the cognitive skills of schizophrenic patients, an adequate cognitive test battery (CogState™) with short duration (as described in detail below) was applied allowing multiple time points measurements during the treatment period (Pietrzak, et al 2009; Maruff, et al 2009).
# The CPAL task is a validated test that assesses visual episodic memory (associate learning). This test has been used previously in schizophrenia. Before beginning this task, the test supervisor reads the full instructions to the patient from the test supervisor script. On the CPAL test, participants must learn a series of associations between a set of difficult to verbalize patterns and locations. In the presentation phase of the task, the pattern appears at the location and the subject is required to acknowledge that they have seen the pattern by touching the location at which it appears. At this stage of the task the patient will also see that there are two locations at which no target appears (distractor locations). Patterns are presented, in random order. However, once presented the pattern remains at the same location throughout the task. In the learning phase of the task, patients must place each of the eight patterns in their correct locations. They must do this in six rounds. For the first round, one of the patterns is presented in the centre location and the subject is required to remember the location at which it had been shown. They indicate the location by touching it. If they touch the incorrect location, a visual and audible signal occurs (a red cross appears over the location and a buzzer sound is presented). The patient is then required to choose a second location. This process continues until the patient has correctly placed all […] of the targets in their correct locations. Once all eight patterns have been placed correctly, the second round begins. In the second round the patterns remain in the same locations, but their order of presentation in the centre of the screen is different to that of the first round (randomized). The process of placing each target in the correct location proceeds as it did in the first round. When the second round is complete, the same process is repeated as the rounds progress the number of errors made in placing the patterns in their correct locations reduces. Administration time is approximately 5 minutes in healthy volunteers. Patients with Schizophrenia would be expected to complete the task within about 12 minutes.
# The assessment of activity was obtained from a statistical analysis of the post dose Area Under the Effect Curve (AUEC) 4-10 on CPAL as follows: variables were separately analyzed by means of a linear mixed effect model adjusted for the period-specific baseline value for the scale, the treatment group, the period, and the sequence as fixed effects, and for the patient as a random effect. The period-specific baseline value for the scale was obtained from the average of the period-specific Day −1 values and from the pre-dose value. The mean treatment difference (and its 95% CI) between each B-5 dose group and placebo was obtained from the model. The effect size was obtained by dividing the mean treatment difference (and its 95% CI) by the square root of twice the estimated variance of the residual error. Activity, as defined in the paragraph above, was assessed from the effect size of CPAL.
# In an attempt to identify a subset of patients who respond to B-5 treatment, a study in a population of 29 individuals using the CPAL assessment was conducted. The purpose was to investigate the relationship between the genetic variants rs2069514 (SEQ IDs NO. 1 and 2) in the CYP1A2 gene and B-5 efficacy in the study. In the study, B-5 mono-fumarate was used in the form of hard gelatin capsules as described in Example E. […]
structure (smiles),measurement,setting,value
"Cc1ccc(-c2ccc(O[C@H]3CN4CCC3CC4)cn2)cc1 [B-5, (R)-3-(6-p-tolyl-pyridin-3-yloxy)-1-aza-bicyclo[2.2.2]octane]",CPAL - AUC4-10 Estimated mean AUC 4-10,"CYP1A2 genotype GG (n = 15), B-5 2 mg",414.75 Total # errors × Hours
same,CPAL - AUC4-10 Placebo - B-5 Effect size,"CYP1A2 genotype GG (n = 15), B-5 2 mg, P-value 0.59",0.15
same,CPAL - AUC4-10 Estimated mean AUC 4-10,"CYP1A2 genotype GG (n = 15), B-5 15 mg",481.4 Total # errors × Hours
same,CPAL - AUC4-10 Placebo - B-5 Effect size,"CYP1A2 genotype GG (n = 15), B-5 15 mg, P-value 0.6706",−0.12
same,CPAL - AUC4-10 Estimated mean AUC 4-10,"CYP1A2 genotype GG (n = 15), B-5 100 mg",457.45 Total # errors × Hours
same,CPAL - AUC4-10 Placebo - B-5 Effect size,"CYP1A2 genotype GG (n = 15), B-5 100 mg, P-value 0.9344",−0.02
same,CPAL - AUC4-10 Estimated mean AUC 4-10,"CYP1A2 genotypes AA + AG (n = 14), B-5 2 mg",411.15 Total # errors × Hours
same,CPAL - AUC4-10 Placebo - B-5 Effect size,"CYP1A2 genotypes AA + AG (n = 14), B-5 2 mg, P-value 0.018",0.68
same,CPAL - AUC4-10 Estimated mean AUC 4-10,"CYP1A2 genotypes AA + AG (n = 14), B-5 15 mg",372.82 Total # errors × Hours
same,CPAL - AUC4-10 Placebo - B-5 Effect size,"CYP1A2 genotypes AA + AG (n = 14), B-5 15 mg, P-value 0.0023",0.91
same,CPAL - AUC4-10 Estimated mean AUC 4-10,"CYP1A2 genotypes AA + AG (n = 14), B-5 100 mg",384.9 Total # errors × Hours
same,CPAL - AUC4-10 Placebo - B-5 Effect size,"CYP1A2 genotypes AA + AG (n = 14), B-5 100 mg, P-value 0.0043",0.83
same,improvement on cognitive function,patients homozygous rs2069514-G/G,did not show any significant improvement
same,response on visual learning and memory (CPAL) compared to placebo,"patients rs2069514 A/A or A/G, 2 mg p=0.018, 15 mg p=0.0023, 100 mg p=0.0043",significant response

# — patent US12215387B2, “Biomarker predictive of responsiveness to alpha 7 nicotinic acetylcholine receptor activator treatment” (Novartis AG, priority 2012, dated 2025)
